Legend:
[1] = Inhibition of thrombin-induced platelet aggregation in human
[2] = Noradrenaline induced vasorelaxant activity in intact rat aortic rings

| IC50 [1] | IC50 [2] | SMILES |
| --- | --- | --- |
| 105 µM | 39.8 µM | COc1cc(OC)cc(-c2cc3ccc(O)cc3oc2=O)c1 [3-(3,5-dimethoxyphenyl)-7-hydroxy-2H-chromen-2-one] |
| > 100 µM | > 100 µM | COc1cc(OC)cc(-c2cc3cc(OC)cc(OC)c3oc2=O)c1 [6,8-dimethoxy-3-(3',5'-dimethoxyphenyl)coumarin] |
| > 25 µM | 42.6 µM | COc1cc(OC)cc(-c2cc3cc(OC)ccc3oc2=O)c1 [6-methoxy-3-(3',5'-dimethoxyphenyl)coumarin] |
| > 100 µM | 52.5 µM | COc1cc(OC)cc(-c2cc3ccc(OC)cc3oc2=O)c1 [7-methoxy-3-(3',5'-dimethoxyphenyl)coumarin] |

The remaining lines, values behind:

| SMILES | IC50 [1] | IC50 [2] |
| --- | --- | --- |
| Oc1ccc(/C=C/c2cc(O)cc(O)c2)cc1 [5-[(E)-2-(4-hydroxyphenyl)ethenyl]benzene-1,3-diol] | – | 19.9 µM |
| O=c1oc2c(O)cc(O)cc2cc1-c1cc(O)cc(O)c1 [6,8-dihydroxy-3-(3',5'-dihydroxyphenyl)coumarin] | 285 µM | 95.5 µM |
| O=c1oc2ccc(O)cc2cc1-c1cc(O)cc(O)c1 [6-hydroxy-3-(3',5'-dihydroxyphenyl)coumarin] | 30.1 µM | 10.6 µM |
| O=c1oc2cc(O)ccc2cc1-c1cc(O)cc(O)c1 [7-hydroxy-3-(3',5'-dihydroxyphenyl)coumarin] | 62.3 µM | 38.9 µM |
